Reference: PMC6838142, “Nano-Antagonist Alleviates Inflammation and Allows for MRI of Atherosclerosis” (Nanotheranostics, 2019)

Tests used:
[1] = tested on: RAW cells; experiment: Flow cytometry competition with excess free peptide; format: cell-based, mouse; conditions: excess (1 mM) free peptide
Text: Figure 1 Screening identifies CCTV as an anti-inflammatory nanoparticle with high affinity for CC chemokine receptor 2. A) A screening of a small library of nanoparticles in lipopolysaccharide (LPS)-stimulated macrophage reporter cells (RAW-Blue) identified CCTV, which downregulates nuclear factor-kappa B (NF-κB) activity. Each point on the plot represents a relative activity of NF-κB (X-coordinate) and corresponding nanoparticle content per mg of cell protein (Y-coordinate) calculated from nanoparticle fluorescence. […] Dexamethasone (Dex) is an NF-κB inhibitor and was used as a positive control. Vehicle-treated and unstained (US) cells served as a negative control. B) CCTV binding to the cell surface was validated in RAW cells using fluorescence microscopy. The cells were stained at 4 °C or room temperature for 30 min with CCTV or vehicle nanoparticles (sudo-colored green). […] E) The Basic Local Alignment Search Tool (BLAST) analysis determined that CCTV peptide sequence repeats in mouse and human CC chemokine receptor family. […]
For a targeted nanotherapy to be effective, the nanoparticles must have affinity to a specific cell type, usually determined by cell surface binding. […] Thus, we used the mouse macrophage reporter cell line RAW-Blue that allowed for monitoring activity of Nuclear Factor-kappa B (NF-kB) and also enabled In vitro quantitation of nanoparticle binding to the cell surface. […]

[2] = tested on: recombinant CCR2 protein; experiment: Competition with CCL2 binding to immobilized CCR2; conditions: free peptide 1 mM in dimethylformamide, 1 h room temperature, recombinant human CCL2; OD 450 nm; three independent experiments
Protocol: A sandwich-type plate-based immunoassay was developed in-house to study CCR2 receptor binding. Black opaque plates (for fluorescence studies) or clear high protein binding plates (for absorbance studies) were coated with recombinant CCR2 protein at 2 µg/mL in PBS overnight at 4 °C. Plates were washed 5 times with PBS and treated as follows: for nanoparticles binding, varying concentrations of fluorescent nanoparticles or vehicle control (see above) in PBS were added to the opaque plates and incubated for 4 h at room temperature. For peptide competition/binding studies, recombinant human CCL2 was added in clear plates at varying concentrations in PBS simultaneously with a large excess of peptides (1 mM final concentration, dissolved in dimethylformamide) and incubated for 1 h at room temperature. All plates were washed 5 times with PBS and fluorescence in opaque plates was read at 550 nm excitation and 620 nm emissions. […] Clear plates were washed and incubated with 0.1 µg/mL streptavidin-HRP. Finally, clear plates were washed and incubated with SigmaFast OPD reagent in the presence of hydrogen peroxide-urea, as per the manufacturer's instructions. After 30 min incubation period at 37 °C, the plates were read at 450 nm on a multiwell plate reader as described above. Fluorescence emission values and OD at 450 nm were plotted against concentration using a 4-parametric fit.

[3] = tested on: BMDMs from CCR2-knockout mice; experiment: Actin polymerization in BMDMs from CCR2-knockout mice; format: cell-based, mouse
Protocol: BMDMs were seeded and cultured on #1 glass coverslips in the presence or absence of 10 μM CCTV or VTCC for 6 h. Next, cells were washed with PBS and recombinant mouse CCL2 was added to a final concentration of 500 nM. Then, cells were incubated for varying times (indicated in Figure 2G), after which they were immediately placed on ice and washed 3 times with cold PBS. Actin polymerization was then visualized following staining with phalloidin Alexa Fluor 633, according to the manufacturer's instructions.

Substance	reduction of CCTV nanoparticle staining by free peptide [1]	competition with CCL2 binding to CCR2 [2]	actin polymerization in CCR2-knockout BMDMs [3]
CCTV [free CCTV peptide, free (unconjugated) CCTV tetrapeptide]	did not show appreciable reduction in CCTV staining in RAW cells	insignificantly competed with receptor binding of natural CCR2 ligand	
CCL2: recombinant mouse CCL2/MCP-1 protein, natural CCR2 ligand			neither nanoparticles nor CCL2 are able to induce polymerization
